Reference: EP4417616A1, “LXR ANTAGONISTS” (Ospedale San Raffaele S.r.l., priority 2023, dated 2024)

Columns and labels:
[1] = system: LLC tumor cells; test: In vitro growth of LLC tumor cells; type: cell-based, mouse; conditions: compared with vehicle
[2] = system: RMA lymphoma; test: Treatment of RMA tumor-bearing mice; conditions: 300 µg i.v. 5 days/week
Protocol: Analysis of tumor infiltrating cells by flow cytometry. […] Tumors collected 7, 10, 12 or 14 days after injection were cut into small fragments and digested with Liberase TL (66 µg/ml, Roche) and DNAse I (150 µg/ml, Roche) for 25-30 minutes at 37 °C. Digested tissues were filtered by using a 75 µm diameter cell strainer. Single cell suspensions were stained with Live/Dead Violet kit reagents (Molecular Probes) for 30 minutes at 4°C. After washing, the cells were incubated for 5-10 minutes at RT with Fc-blocking solution (Anti-CD16/32, 10 µg/ml mouse Fc Block, BD) and then stained with various antibodies incubated at 4°C for 20 minutes. […] CD209a (5H10), CCR7 (4b12) and F4/80 (BM8) were from eBioscience. Rat IgG, Rat IgG2a, Rat IgG2b, Rat IgM and Hamster isotype control mAbs were used as controls (Biolegends and BD Biosciences). For intracellular staining, cells were incubated with PMA (100 ng/ml) and ionomycin (500 ng/ml) in the presence of 10 µg/ml of Brefeldin for 4 hours. Cells were then fixed using the IC Fixation buffer (eBioscience), permeabilized with 1x Permeabilization buffer (eBiosciences) and stained with anti-IFNy mAb. Samples were run by FACSCanto flow cytometer and analyzed by FlowJo software gating on live cells. FACS sorting was performed by using the FACSAria Fusion (BD)
Tumor challenge experiments. C57BL/6 mice were injected subcutaneously with LLC-Mock (1 ×10^6), LLC-SULT2B1b (1 ×10^6), RMA (2 ×10^5), or B16F1-OVA (2 ×10^5) tumor cells. […] Tumor size was evaluated by measuring perpendicular diameters by a caliper every 2-3 days. Data are reported as the average tumor volume ± SD. In selected experiments tumors were injected in Ccr2^-/-mice.
Treatment of tumor-bearing mice with LXR antagonists alone or with immunotherapy. Tumor-bearing mice were treated with 25-HC-3S or PFM037 6-7 days after tumor challenge. After 6-7 days, mice were randomly assigned to either treatment or vehicle groups. Mice were injected with 300 µg of either compound given i.v. for 5 days/week. […] B16F1-OVA-bearing mice were treated with 400 µg of PFM037 for 5 days/week. For controls of mAb experiments, mice were injected with 250 µg of rat IgG2a isotype control antibody. […] Tumors were collected and measured 14 days after tumor challenge.

[3] = system: MC38-GFP colon cancer cells; test: Liver metastasis model, intramesenteric injection of MC38-GFP cells; conditions: 400 µg, 3 days/week for 2 weeks; 21 days after tumor challenge; vs vehicle
Protocol: Macroscopic liver tumor quantification and Immunohistochemistry. At time of autopsy, visible macroscopic tumors were counted, and each liver macroscopically photographed. Livers were then perfused with PBS, harvested and different pieces were sampled, fixed in zinc-formalin and embedded in paraffin for hematoxylin/eosin or immunohistochemical analysis as described^62. Immunohistochemical staining was performed using a Bond RX Automated Immunohistochemistry system (Leica Microsystems GmbH, Wetzlar, Germany) on 3-µm-thick sections. First, tissues were deparaffinized and pre-treated with the Epitope Retrieval Solution [ER1 Citrate Buffer for GFP (dilution 1:500, GFP Polyclonal Antibody, Thermo Fisher Scientific, Cat# A11122, RRID:AB_221569). After washing steps, peroxidase blocking was carried out for 10 min using the Bond Polymer Refine Detection Kit DS9800 (Leica Microsystems GmbH). Then, tissues were washed and incubated for 1h RT with the primary antibody diluted in IHC Antibody Diluent (Novocastra, Leica RE7133). Subsequently, tissues were incubated with polymer-HRP (Biocare Medical, RT517H), developed with DAB-Chromogen for 10 minutes and counterstained with Hematoxilin for 5 minutes. For image acquisition and analysis eSlide Manager (Aperio Leica Biosystems) was used. All images were acquired using the Aperio AT2 system (Leica Biosystems). […]

[4] = system: MC-38-OVA-liver metastases; type: in vivo, mice; conditions: 1440 h
Protocol: (§1) . Forty-eight hours later the cells were differentiated and expanded by IL-7/IL15 (5ng/ml both cytokines) with or without PFM037. Ten, 12 and 15 days later, FACS analysis was performed to evaluate their differentiation status. […]. Then, mice bearing MC-38-OVA-liver metastases were treated with vehicle, or OT-I T cells expanded with IL-2 (effectors), or IL-7/IL15 with or without PFM037. Tumor-bearing mice injected with vehicle were all dead 40 days after tumor injection. Twenty percent of tumor-bearing mice treated with OT-I T cells expanded with IL-2 were alive at 60 days, whereas 50% and 80% of tumor-bearing mice treated with IL-7/IL15 with or without PFM037, respectively, were alive at 60 days (Fig. 20). […].

[5] = system: OT-I T cells; test: In vitro differentiation and expansion of activated OT-I T cells by IL-7/IL15; type: cell-based, mouse
Protocol: as §1

[6] = system: bone marrow-purified monocytes; test: In vitro mono-DC differentiation of bone marrow-purified monocytes cultured with M-CSF; type: cell-based, mouse; conditions: wild type monocytes, 48 hours of culture
[7] = Blood plasma chemistry analysis (plasma lipids); type: in vivo; conditions: tumor-bearing mice; PFM037 (0.4 µg/day); Fig. 5N
Protocol: Blood Plasma Chemistry Analysis. For all in vivo experiments mouse blood samples were collected via cardiac puncture and isolated plasma was analyzed by the COBAS c311 system (Roche) for plasma lipids.

[8] = system: LLC tumors; test: NMR lipidomic profiling of LLC tumors; conditions: PFM037-treated vs vehicle-treated LLC tumors
Protocol: Extraction of the lipidic and polar fractions from tumor tissues. […] They were resuspended in 170 µL of H2O and 700 µL of methanol and sonicated for 60 sec. Then, 350 µL of chloroform were added and mixed the samples on an orbital shaker in ice for 10 minutes. After that, 350 µL of H2O/chloroform (1:1, v/v) were added to each suspension and centrifuged at 4000 rpm for 10 minutes at 4°C. Thereafter, the aqueous (polar) and lipidic (non-polar) phases were collected separately, transferred to a glass vial and evaporated.
^1H NMR spectra acquisition and data analysis. All the lipidic and polar samples were analyzed using Nuclear Magnetic Resonance (NMR). The lipidic fractions were dissolved in 700 µL of deuterated chloroform (CDCl3) and 0.03 volume percentage of tetramethylsilane (TMS) and inserted in NMR tubes whereas the polar fractions were dissolved in 630 µL of PBS-D2O with the pH adjusted to 7.20, and 70 µL of trimethylsilylpropanoic acid (TSP) (1% in D2O). TMS and TSP were used as the internal standards. […] All ^1H NMR spectra were manually phased and baseline-corrected and referenced to the CH3 resonance of TSP or TMS at 0 ppm. The spectral 0.50-8.60 ppm region of ^1H-NMR spectra was integrated in buckets of 0.04 ppm by AMIX package (Bruker, Biospin, Germany). […]

[9] = system: melanoma B16F1-OVA; test: Treatment of B16F1-OVA-bearing mice; type: in vivo
Text: (§2) Tumor challenge experiments.

[10] = system: LXR target genes ABCA1, SREBP1c, FASN and SCD1; test: Quantitative Real-Time-PCR of LXR target genes in PMA-differentiated U937 cells; type: cell-based, human; conditions: U937 differentiated with PMA 72 hours; PFM037 50, 25 and 10 µM, 16 hours
Protocol: Reporter assay for nuclear receptor transcriptional activity. Human embryonic Kidney 293 cells (American Type Culture Collection) were cultured in Dulbecco's Modified Eagle's medium containing 10% of fetal bovine serum at 37°C in humidified atmosphere of 5% CO2. HEK293 cells (4×10^4 cells per well) were transiently transfected in 48 well plate with the reporter plasmids pMH100X4-TK-luc (100 ng/300µl), Renilla (22 ng/300µl) together with 100 ng/300µl of pCMX-Gal4-LXRα or pCMX-Gal4-LXRβ plasmids using X-tremeGENE 9 DNA Transfection Reagent (Roche). Six hours after transfection, the cells were treated with the appropriate compound for 24 hours. Luciferase activities were analyzed by luciferase Dual Reporter Assay Systems (Promega) according to the manufacturer's protocol. GAL4-LXRs, and TK-MHC100-luc plasmids were described in^7. For mammalian two-hybrid assays the human liver cell line Hhu7 (American Type Culture Collection) was transiently transfected with the reporter plasmids p5xUAS-tk-Luc (100 ng/300µl) together with pGAL4-RAP250-Del4 (133 ng/300µl), described in^39, and either of pVP16-LXRα-LBD or pVP16-LXRβ-LBD plasmids (133 ng/300µl), described in^40, using the jetPrime transfection reagent (Polyplus). Six hours after transfection, the cells were treated with the appropriate compound for 40 hours. Luciferase activity was analyzed as described above and protein content spectrophotometrically using Coomassie Plus Protein assay reagent (Thermo Scientific). Quantitative Real-Time-PCR. U937 cell line was differentiated in foam macrophages with phorbol 12-myristate 13-acetate (PMA) 10 ng/ml (Sigma) for 72 hours at 37°C in RPMI 10% FBS. At day 3 T0901317 (10 µM) or different amount of PFM037 (50, 25 and 10 µM) were added for 16 hours. Total RNA was purified by TRIZOL (Invitrogen). Reverse transcription was performed by MLV-reverse transcriptase (Promega). QPCR was performed using SYBR Green Master Mix (Applied Biosystems) and real-time PCR (Viia 7 Real Time PCR System, Applied Biosystems). PCR reactions were done in triplicate. The comparative Ct method was used to quantify transcripts that were normalized for human GAPDH. The following primer pairs were used: • GAPDH-F 5'-ACATCATCCCTGCCTCTACTG-3' (SEQ ID No. 1); • GAPDH-R 5'-ACCACCTGGTGCTCAGTGTA-3'(SEQ ID No. 2); • ABCA1-F 5'-CCA GGC CAG TAC GGA ATT C-3' (SEQ ID No. 3); • ABCA1-R 5'-CCT CGC CAA ACC AGT AGG A-3' (SEQ ID No. 4); • SREBP-1c-F 5'-GGC GGG CGC AGA TC-3' (SEQ ID No. 5); • SREBP-1c-R 5'-TTGTTGATAAGCTGAAGCATGTCT-3' (SEQ ID No. 6); • FAS F 5'-ACA GCG GGG AAT GGG TAC T-3'(SEQ ID No. 7); • FAS R 5'-GACTGGTACAACGAGCGGAT-3' (SEQ ID No. 8); • SCD1-F 5'-TTCAGAAACACATGCTGATCCTCATAATTC-3' (SEQ ID No. 9); • SCD1-R 5'-ATTAAGCACCACAGCATATCGCAAGAAAGT-3'(SEQ ID No. 10)

[11] = system: Lewis Lung Carcinoma (LLC); test: Treatment of LLC tumor-bearing mice; type: in vivo
Text: as §2

[12] = OT-I T cells expanded by IL-7/IL15 with PFM037, FACS at 10, 12 and 15 days
[13] = LLC-bearing mice, 300 µg i.v. 5 days/week from day 6-7, vs vehicle

CC(C)CC[C@H](O)[C@@H](C)[C@H]1CC[C@H]2[C@@H]3CC=C4C[C@@H](OS(=O)(=O)[O-])CC[C@]4(C)[C@H]3CC[C@]12C.[Na+] [PFM037, 22(S)-Hydroxycholesterol-3-sulfate sodium salt]
in vitro growth of LLC tumor cells [1]: grew in a similar manner
numbers of tumor-infiltrating mono-DCs [2]: Higher
tumor growth ([2]; tumor weight at sacrifice): tumor growth control
tumor area [3]: reduced
tumor nodules (macroscopic liver tumor lesions) [3]: much less
tumor-bearing mice alive at 60 days [4]: 50%
CD39 and CD69 markers [5, 12]: progressively lost
CD62L and CD44low markers [5, 12]: progressively acquiring
stemness markers Sca1, Tcf1 and CXCR3 ([5]; T cells expanded by IL7 and IL15 in the presence of PFM037): higher levels
CD11c marker expression [6]: expressed CD11c marker
plasma HDL [7]: reduced levels
plasma LDL [7]: did not change
plasma not esterified fatty acids [7]: reduced levels
plasma total cholesterol [7]: reduced levels
plasma triglycerides [7]: reduced levels
proton signals of ω-3 fatty acid docosahexaenoic acid and its derivatives [8]: lower levels
proton signals of ω-6 fatty acid arachidonic acid and its derivatives [8]: enriched
antitumor activity, 400 µg compared with 300 µg [9]: much stronger
tumor growth ([9]; 400 µg 5 days/week): delayed the growth
ABCA1 transcripts [10]: no activation
FASN mRNA expression [10]: inhibition
SCD1 mRNA expression [10]: inhibition
SREBP-1c mRNA expression [10]: inhibition
absolute numbers of tumor-infiltrating mono-DCs [11, 13]: Higher
tumor growth [11, 13]: delay of tumor growth
tumor growth ([11]; established LLC tumors, 300 µg/mouse every other day, Fig. 24B): able to control LLC tumor growth
LLC growth in wild type BM-chimera mice ([11]; wild type BM-chimera mice, compared to vehicle, Fig. 7C): better control of LLC growth
